Measurements taken from ChEMBL document CHEMBL5226390, “Synthesis and Structure-Activity Analysis of Icaritin Derivatives as Potential Tumor Growth Inhibitors of Hepatocellular Carcinoma Cells” (J Nat Prod, 2023).
In brackets after ≈: the same amount, converted by molar mass. Activity calls are given as the source filed them. No cut-off for these calls is given here.

Columns and labels:
SMMC-7721 [1] = assay: Induction of cell cycle arrest in human SMMC-7721 cells assessed as upregulation of p21 protein expression at 2 to 8 uM incubated for 48 hrs by western blot analysis; assay type: functional, cell-based; settings: dose 2-8 µM
HepG2 [2] = assay: Induction of apoptosis in human HepG2 cells assessed as early apoptotic cells at 2 uM incubated for 48 hrs by AnnexinV-FITC/PI staining based flow cytometry (reference value: 3.41%); assay type: functional
SMMC-7721 [3] = assay: Induction of apoptosis in human SMMC-7721 cells assessed as necrotic cells at 2 uM incubated for 48 hrs by AnnexinV-FITC/PI staining based flow cytometry (reference value: 12.3%); assay type: functional
HepG2 [4] = assay: Induction of apoptosis in human HepG2 cells assessed as necrotic cells at 4 uM incubated for 48 hrs by AnnexinV-FITC/PI staining based flow cytometry (reference value: 2.22%); assay type: functional
HepG2 [5] = assay: Induction of apoptosis in human HepG2 cells assessed as increase in number of detached cells with fewer cells at 2 to 8 uM incubated for 48 hrs by phase contrast microscopy; assay type: functional, cell-based; settings: dose 2-8 µM
HepG2 [6] = assay: Potency index, ratio of Sorafenib IC50 to test compound IC50 for antiproliferative activity against human HepG2 cells; assay type: functional
HepG2 [7] = assay: Induction of cell cycle arrest in human HepG2 cells assessed as accumulation of cells at G2/M phase at 8 uM incubated for 48 hrs by PI staining based flow cytometry (reference value: 17.89%); assay type: functional
HepG2 [8] = assay: Induction of cell cycle arrest in human HepG2 cells assessed as downregulation of Cdc2 protein expression at 2 to 8 uM incubated for 48 hrs by western blot analysis; assay type: functional, cell-based; settings: dose 2-8 µM
HepG2 [9] = assay: Induction of apoptosis in human HepG2 cells assessed as early apoptotic cells at 4 uM incubated for 48 hrs by AnnexinV-FITC/PI staining based flow cytometry (reference value: 3.41%); assay type: functional
SMMC-7721 [10] = assay: Induction of apoptosis in human SMMC-7721 cells assessed as early apoptotic cells at 8 uM incubated for 48 hrs by AnnexinV-FITC/PI staining based flow cytometry (reference value: 1.13%); assay type: functional
HepG2 [11] = assay: Induction of cell cycle arrest in human HepG2 cells assessed as accumulation of cells at S phase at 2 uM incubated for 48 hrs by PI staining based flow cytometry (reference value: 18%); assay type: functional
HepG2 [12] = assay: Induction of apoptosis in human HepG2 cells assessed as viable cells at 4 uM incubated for 48 hrs by AnnexinV-FITC/PI staining based flow cytometry (reference value: 91.1%); assay type: functional; settings: read-out: Activity
SMMC-7721 [13] = assay: Induction of apoptosis in human SMMC-7721 cells assessed as viable cells at 4 uM incubated for 48 hrs by AnnexinV-FITC/PI staining based flow cytometry (reference value: 85.1%); assay type: functional; settings: read-out: Activity
[14] = Solubility of the compound in water incubated for 24 hrs under stirring conditions by HPLC analysis; assay type: physicochemical
HepG2 [15] = assay: Induction of apoptosis in human HepG2 cells assessed as chromatin condensation and fragmentation at 2 to 8 uM incubated for 48 hrs by Hoechst 33258 staining based fluorescence microscopic analysis; assay type: functional, cell-based; settings: dose 2-8 µM
SMMC-7721 [16] = assay: Induction of apoptosis in human SMMC-7721 cells assessed as chromatin condensation and fragmentation at 2 to 8 uM incubated for 48 hrs by Hoechst 33258 staining based fluorescence microscopic analysis; assay type: functional, cell-based; settings: dose 2-8 µM
SMMC-7721 [17] = assay: Induction of cell cycle arrest in human SMMC-7721 cells assessed as accumulation of cells at G2/M phase at 2 uM incubated for 48 hrs by PI staining based flow cytometry (reference value: 15.49%); assay type: functional
SMMC-7721 [18] = assay: Induction of apoptosis in human SMMC-7721 cells assessed as early apoptotic cells at 4 uM incubated for 48 hrs by AnnexinV-FITC/PI staining based flow cytometry (reference value: 1.13%); assay type: functional
SMMC-7721 [19] = assay: Induction of cell cycle arrest in human SMMC-7721 cells assessed as accumulation of cells at G2/M phase at 8 uM incubated for 48 hrs by PI staining based flow cytometry (reference value: 15.49%); assay type: functional
HepG2 [20] = assay: Induction of apoptosis in human HepG2 cells assessed as late apoptotic cells at 2 uM incubated for 48 hrs by AnnexinV-FITC/PI staining based flow cytometry (reference value: 3.23%); assay type: functional
HepG2 [21] = assay: Induction of cell cycle arrest in human HepG2 cells assessed as accumulation of cells at G0/G1 phase at 2 uM incubated for 48 hrs by PI staining based flow cytometry (reference value: 64.11%); assay type: functional
HepG2 [22] = assay: Induction of apoptosis in human HepG2 cells assessed as viable cells at 8 uM incubated for 48 hrs by AnnexinV-FITC/PI staining based flow cytometry (reference value: 91.1%); assay type: functional; settings: read-out: Activity
SMMC-7721 [23] = assay: Induction of apoptosis in human SMMC-7721 cells assessed as increase in number of detached cells with fewer cells at 2 to 8 uM incubated for 48 hrs by phase contrast microscopy; assay type: functional, cell-based; settings: dose 2-8 µM
HepG2 [24] = assay: Induction of cell cycle arrest in human HepG2 cells assessed as downregulation of CDK4 protein expression at 2 to 8 uM incubated for 48 hrs by western blot analysis; assay type: functional, cell-based; settings: dose 2-8 µM
SMMC-7721 [25] = assay: Potency index, ratio of Sorafenib IC50 to test compound IC50 for antiproliferative activity against human SMMC-7721 cells; assay type: functional
HepG2 [26] = assay: Induction of apoptosis in human HepG2 cells assessed as viable cells at 2 uM incubated for 48 hrs by AnnexinV-FITC/PI staining based flow cytometry (reference value: 91.1%); assay type: functional; settings: read-out: Activity
SMMC-7721 [27] = assay: Induction of cell cycle arrest in human SMMC-7721 cells assessed as accumulation of cells at S phase at 4 uM incubated for 48 hrs by PI staining based flow cytometry (reference value: 24.94%); assay type: functional
SMMC-7721 [28] = assay: Induction of cell cycle arrest in human SMMC-7721 cells assessed as accumulation of cells at G2/M phase at 4 uM incubated for 48 hrs by PI staining based flow cytometry (reference value: 15.49%); assay type: functional
SMMC-7721 [29] = assay: Induction of cell cycle arrest in human SMMC-7721 cells assessed as accumulation of cells at S phase at 8 uM incubated for 48 hrs by PI staining based flow cytometry (reference value: 24.94%); assay type: functional
SMMC-7721 [30] = assay: Induction of apoptosis in human SMMC-7721 cells assessed as late apoptotic cells at 4 uM incubated for 48 hrs by AnnexinV-FITC/PI staining based flow cytometry (reference value: 1.51%); assay type: functional
SMMC-7721 [31] = assay: Induction of apoptosis in human SMMC-7721 cells assessed as necrotic cells at 8 uM incubated for 48 hrs by AnnexinV-FITC/PI staining based flow cytometry (reference value: 12.3%); assay type: functional
HepG2 [32] = assay: Induction of cell cycle arrest in human HepG2 cells assessed as accumulation of cells at S phase at 8 uM incubated for 48 hrs by PI staining based flow cytometry (reference value: 18%); assay type: functional
HepG2 [33] = assay: Induction of cell cycle arrest in human HepG2 cells assessed as accumulation of cells at G2/M phase at 2 uM incubated for 48 hrs by PI staining based flow cytometry (reference value: 17.89%); assay type: functional
HepG2 [34] = assay: Induction of apoptosis in human HepG2 cells assessed as necrotic cells at 8 uM incubated for 48 hrs by AnnexinV-FITC/PI staining based flow cytometry (reference value: 2.22%); assay type: functional

COc1ccc(-c2oc3c(CC=C(C)C)c(OCCN4CCCC4)cc(O)c3c(=O)c2O[C@H]2O[C@H](C)[C@@H](O)[C@H](O)[C@@H]2O)cc1
Activity (SMMC-7721 [1]): Active | Activity (HepG2 [2]): 1.52% | Activity (SMMC-7721 [3]): 2.96% | Activity (HepG2 [4]): 3.21% | Activity (HepG2 [5]): Active | Ratio IC50 (HepG2 [6]): 2 | Activity (HepG2 [7]): 6.39% | Activity (HepG2 [8]): Active | Activity (HepG2 [9]): 5.14% | Activity (SMMC-7721 [10]): 3.28% | Activity (HepG2 [11]): 13.7% | viability at 4 µM (HepG2 [12]): 86.2% | viability at 4 µM (SMMC-7721 [13]): 89.6% | solubility at 24 h [14]: 11.8 mg/mL (≈ 19.3 mM) | Activity (HepG2 [15]): Active | Activity (SMMC-7721 [16]): Active | Activity (SMMC-7721 [17]): 13.29% | Activity (SMMC-7721 [18]): 2.54% | Activity (SMMC-7721 [19]): 8.88% | Activity (HepG2 [20]): 6.26% | Activity (HepG2 [21]): 68.79% | viability at 8 µM (HepG2 [22]): 62.2% | Activity (SMMC-7721 [23]): Active | Activity (HepG2 [24]): Active | Ratio IC50 (SMMC-7721 [25]): 2 | viability at 2 µM (HepG2 [26]): 83.3% | Activity (SMMC-7721 [27]): 19.6% | Activity (SMMC-7721 [28]): 14.83% | Activity (SMMC-7721 [29]): 12.47% | Activity (SMMC-7721 [30]): 6.92% | Activity (SMMC-7721 [31]): 22.1% | Activity (HepG2 [32]): 2.47% | Activity (HepG2 [33]): 17.51% | Activity (HepG2 [34]): 16.7%
